Reference: patent publication US11766412B2, “Methods of treating or alleviating adenylosuccinatelyase (ADSL) deficiency using spermidine or a pharmaceutically acceptable salt of spermidine” (GENEHEAL BIOTECHNOLOGY CO., LTD., priority 2016, dated 2023)
Non-standard residues stand in square brackets, D forms with d. Residues, ends and D or L forms follow the SMILES beside them. Arg(NO2) = N=C(NCCC[C@H](N)C(=O)O)N[N+](=O)[O-]; Dab = NCC[C@H](N)C(=O)O

System: SAICAR synthetase
Assay: Inhibition of SAICAR accumulation, biochemical enzyme activity experiments and cell biology experiments
From the text: On the basis of the above results, the crystal structure conformations in SAICAR synthetases of Saccharomyces cerevisiae (PDB: 2CNQ) and Escherichia coli (PDB: 2GQS) are used as receptor structures for calculating and screening, since there is no conformation which can bind CAIR in human PAICS crystal structure, and no catalytic conformation formed in the catalytic region, and the results obtained by calculation are not reliable. 4661 of small molecule drugs in the DrugBank (www.drugbank.ca) are calculated and screened by using the ligand fit module of Discovery studio. The conformations are ordered according to dock scores, and then the first 500 conformations are selected. After eliminating the repetitions, key screening results are obtained. In addition, the inhibition ratios of the compounds against SAICAR accumulation are confirmed by biochemical enzyme activity experiments and cell biology experiments, as shown in Table 1.

Compound | Inhibition ratios against SAICAR accumulation
N[C@@H](CCC(=O)N[C@@H](CSCc1ccc([N+](=O)[O-])cc1)C(=O)NCC(=O)O)C(=O)O [D1303686, S-(P-Nitrobenzyl)Glutathione] | 63.83%
NC[C@H]1O[C@H](O[C@H]2[C@H](O)[C@@H](O)[C@H](N)C[C@@H]2N)[C@H](N)[C@@H](O)[C@@H]1O [D1304808, Neamine] | 37.11%
N[C@@H](Cc1cc(N=Nc2ccccn2)c(O)cc1O)C(=O)O [DB01634, 2-Oxy-4-Hydroxy-5-(2-Hydrazinopyridine)Phenylalanine] | 23.7%
NC(CC1=CC(=NC2CC2c2ccccc2)C(O)=CC1=O)C(=O)O (stereo not drawn) [DB01657, 2-Amino-3-[4-Hydroxy-6-Oxo-3-(2-Phenyl-Cyclopropylimino)-Cyclohexa-1,4-Dienyl]-Propionic acid] | 22.9%
Cc1ncc(COP(=O)(O)O)c(CN[C@@H](CCC(=O)O)C(=O)O)c1O [DB01813, Pyridoxyl-Glutamic Acid-5′-Monophosphate] | 40.9%
N[C@@H](CCCCNC(C(=O)O)C(=O)O)C(=O)O [DB01815, Nz-(Dicarboxymethyl)Lysine] | 22.68%
NCC[C@H](NC(=O)[C@@H](N)CCCN=C(N)N[N+](=O)[O-])C(N)=O [DB01821, L-N(Omega)-Nitroarginine-2,4-L-Diaminobutyric Amide] (H-[Arg(NO2)]-[Dab]-NH2) | 57.11%
Nc1ncnc2c1ncn2[C@@H]1O[C@H](COP(=O)(O)OC(=O)[C@@H](N)CC(=O)O)[C@@H](O)[C@H]1O [DB01895, Aspartyl-Adenosine-5′-Monophosphate] | 22.918%
NC(CSC1C=C(C(N)C(=O)O)ON1)C(=O)O (stereo not drawn) [DB01974, 2-Amino-3-[5-(Amino-Carboxy-Methyl)-2,3-Dihydro-Isoxazol-3-Ylsulfanyl]-Propionic Acid] | 66.711%
NCCC[C@H](NC(=O)CP(=O)(O)O)C(=O)O [DB02011, N-(phosphonoacetyl)-L-Ornithine] | 41.85%
O=c1[nH]cnc2c([C@@H]3N[C@H](COP(=O)(O)O)[C@@H](O)[C@H]3O)c[nH]c12 [DB02075, (1s)-1-(9-Deazahypoxanthin-9-yl)-1,4-Di Deoxy-1,4-Imino-D-Ribitol-5-Phosphate] | 28.5%
NC(=O)[C@@H]1C[C@@H](NC(=O)[C@@H](N)CCCN=C(N)N[N+](=O)[O-])CN1 [DB02077, L-N(Omega)-Nitroarginine-(4r)-Amino-L-Proline Amide] | 71.8%
NC(=NCCCC(N)C(=O)O)NC(CC(=O)O)C(=O)O (stereo not drawn) [DB02267, Argininosuccinate] | 86.81%
OCC(OS(O)(O)O)[C@H](O)CN1C[C@@H](O)[C@H](O)[C@H]1CO (stereo partly drawn) [DB02492, Ghavamiol] | 17.4%
Cc1ccc(OCC(=CC=O)Nc2cc(C[C@H](N)C(=O)O)c(O)cc2O)cc1 [DB02537, 2 -Hydroxy-5-({1-[(4-Methylphenoxy)Methyl]-3-Oxoprop-1-Enyl}Amino)-L-Tyrosin] | 71.1%
Cc1ncc(COP(=O)(O)O)c(CNCC(=O)O)c1O [DB02824, N-Pyridoxyl-Glycine-5-Monophosphate] | 77.97%
CC(N)C(CCCCCC(=O)O)NC(=O)OP(=O)(O)O (stereo not drawn) [DB02927, Mixed Carbamic Phosphoric Acid Anhydride of 7,8-Diaminononanic acid] | 22.8%
CC(N)C(CCCCCC(=O)O)CC(=O)O (stereo not drawn) [DB02941, 3-(1-Aminoethyl)Nonanedioic Acid] | 69.8%
N[C@@H](CCC(=O)N[C@@H](CS(=O)(=O)O)C(=O)NCC(=O)O)C(=O)O [DB03003, Glutathione Sulfonic acid] | 38%
C=C[C@@H](NC(=O)[C@H](CS)NC(=O)CCC[C@H](N)C(=O)O)C(=O)O [DB03427, Delta-(L-Alpha-Aminoadipoyl)-L-Cysteinyl-D-Vinylglycine] | 13.3%

Compound | Inhibition ratios against SAICAR accumulation
Cc1ncc(COP(=O)(O)O)c(CNC(C(C)C)P(=O)(O)O)c1O (stereo not drawn) [DB03433, {[(3-Hydroxy-2-Methyl-5-Phosphonooxymethyl-Pyridin-4-ylmethyl)-Amino]-2-Methyl-Propyl}-Phosphonic Acid] | 53.38%
NCCCCNCCCN [DB03566, Spermidine] | 68.98%
NCCC[C@H](NC(=O)CCC(=O)O)C(=O)O [DB03582, N-2-Succinylornithine] | 19.97%
N[C@@H](CCC(=O)N[C@@H](CSCc1ccccc1)C(=O)NCC(=O)O)C(=O)O [DB03602, S-Benzyl-Glutathione] | 36.5%
CC(N)C(CCCCCC(=O)O)NC(=O)O (stereo not drawn) [DB03624, 7-(Carboxyamino)-8-Amino-Nonanoic Acid] | 51.9%
C[C@@H](NC(=O)CCCC[C@H](NC(=O)CN)C(=O)O)C(=O)O [DB03927, Glycyl-L-Alpha-Amino-Epsilon-Pimelyl-D-Alanine] | 29.859%
N[C@@H](CCC(=O)N[C@@H](CSCO)C(=O)NCC(=O)O)C(=O)O [DB04153, S-Hydroxymethyl Glutathione] | 58%
NC(CCCCN[C@@H](CCC(=O)O)C(=O)O)C(=O)O (stereo partly drawn) [DB04207, N-(5-Amino-5-Carboxypentyl)-Glutamic Acid] | 65.69%
N[C@@H](CSC1CC(CC(=O)O)ON1N)C(=O)O (stereo partly drawn) [DB04323, 2-Amino-3-(Cystein-S-Yl)-Isoxazolidin-5-Yl-Acetic acid] | 56.68%
N[C@@H](CCC(=O)N[C@@H](CSCc1cccc(I)c1)C(=O)NCC(=O)O)C(=O)O [DB04341, S-(3-Iodobenzyl)Glutathione] | 9.9%
Cc1cccc(C2=C(c3ccc4ncccc4n3)CNN2)n1 [DB04434, Naphthyridine Inhibitor] | 22.98%
CN(C)c1ncnc2c1ncn2[C@@H]1O[C@H](COP(=O)(O)O)[C@@H](N)[C@H]1O [DB04602, PUROMYCIN AMINONUCLEOSIDE-5′-MONOPHOSPHATE] | 12.9%
CN(CC[C@H](N)CC(=O)N[C@H]1C=C[C@H](N2C=C[C@@](N)(O)NC2=O)O[C@@H]1C(=O)O)C(=N)N [DB04649, TETRAHEDRAL INTERMEDIATE OF BLASTICIDIN S] | 20.09%
NCCCCCCNCCCCCCN [DB04684, BIS(HEXAMETHYLENE)TRIAMINE] | 9.3%
N[C@@H](CCC(=O)N[C@@H](CS(=O)O)C(=O)NCC(=O)O)C(=O)O [DB04700, GLUTATHIONE SULFINATE] | 9.98%
CSC[C@H](NC(=O)CC[C@H](N)C(=O)O)C(=O)NCC(=O)O [DB04701, S-METHYL-GLUTATHIONE] | 40.1%
Cc1ncc(COP(=O)(O)O)c(CN[C@H](CCC(=O)O)C(=O)O)c1O [DB04762, N-PYRIDOXYL-D-GLUTAMIC ACID-5′-MONOPHOSPHATE] | 27.7%
C[C@H](NC(=NCC(=O)O)Nc1ccc(C#N)cc1)c1ccccc1 [DB04778, SC45647] | 11.29%
N-ethyl-N[3-(propylamino)propyl]propane-1,3-diamine [DB04633] | 12.798%
